Experimental data published in paper PMC9378673 (Nature Communications, 2022).
“And” between values parts separate entries of the source, which are not always exact repeats. Equal entries are not always repeated. Structures can show the parent of a compound that is named as a salt. Where two headings read alike, the source gives them in different places.

Experiments:
[1] = system: LN18 cells containing an empty vector (control, no IDH1); test: 2-HG levels in cells by anion-exchange chromatography-MS; format: cell-based, human; design: unit not given here
IDH1 S280F = molecular target: T1, IDH1 S280F (Homo sapiens, UniProt O75874, S280F); test: Steady-state kinetics, spectrophotometric NADPH absorption assay; format: biochemical
T1 construct: made in house; host or cells: E. coli BL21(DE3)plysS
Procedure: (§1) This assay was used to study steady-state kinetics and inhibition of reactions catalysed by IDH1 variants. The assay buffer was 100 mM Tris, 10 mM MgCl2, 0.2 mM dithiothreitol (DTT), 0.005%(v/v) Tween 20, and 0.1 mg mL^−1 bovine serum albumin (BSA) (pH 8.0). For inhibition assays, IDH1 variants were incubated with an inhibitor for 12 min before the reaction was initiated by substrate addition. The standard error was derived from curve fitting using GraphPad Prism v9. See figure legends for details on specific kinetic assays (Figs. 1–3; Supplementary Fig. 5; Supplementary Table 1). […]
(§2) spectrophotometric NADPH absorption assay. Conditions: 100 mM Tris, 10 mM MgCl2, 0.2 mM DTT, 0.005 %(v/v) Tween 20, and 0.1 mg/mL bovine serum albumin (BSA), pH 8.0. […] (a) Michaelis Menten […]
(§3) parameters for the oxidative decarboxylation of isocitrate. Errors: standard error of the mean (n = 3). (b) Michaelis Menten parameters for the reduction of 2-OG to 2-HG. Errors: standard error of the mean (n = 3).

IDH1 wt = molecular target: T2, IDH1 wt (Homo sapiens, UniProt O75874); test: as above; format: biochemical
T2 construct: made in house; host or cells: E. coli BL21(DE3)plysS
Procedure: as §1, §2, §3

[2] = 5 µM inhibitor, 24 h, replicates
[3] = oxidative decarboxylation of isocitrate; 1 nM enzyme; read-out: KM IDH1 S280F
[4] = oxidative decarboxylation of isocitrate; 1 nM enzyme; varied substrate = label
[5] = reduction of 2-OG to 2-HG; […] enzyme; read-out: KM IDH1 S280F
[6] = oxidative decarboxylation of isocitrate; 1 nM enzyme; read-out: KM IDH1 wt

T1 sequence (O75874 whole entry S280F): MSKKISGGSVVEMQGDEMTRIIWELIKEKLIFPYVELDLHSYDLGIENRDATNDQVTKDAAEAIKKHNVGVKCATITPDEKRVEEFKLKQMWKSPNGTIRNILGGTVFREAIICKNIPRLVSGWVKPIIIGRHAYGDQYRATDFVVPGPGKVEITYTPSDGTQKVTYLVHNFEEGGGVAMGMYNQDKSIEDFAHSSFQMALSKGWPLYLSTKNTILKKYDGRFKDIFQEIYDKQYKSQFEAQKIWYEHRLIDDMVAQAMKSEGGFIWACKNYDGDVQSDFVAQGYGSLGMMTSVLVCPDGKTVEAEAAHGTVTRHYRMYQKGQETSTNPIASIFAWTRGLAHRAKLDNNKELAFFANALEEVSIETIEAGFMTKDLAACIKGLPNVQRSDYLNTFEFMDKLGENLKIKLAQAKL
T2 sequence (O75874 whole entry): as the sequence (O75874 whole entry S280F) above, with F280S counted along it

Compound: Cc1cn(C(=O)c2c(-c3c(Cl)cc(Cl)cc3Cl)noc2C(C)(C)F)c2cccc(/C=C/C(=O)O)c12 [DS-1001B]
- 2-HG levels, control (empty vector) LN18 cells [1, 2]: 51141.4 and 46980.7 and 53466.4 and 38288.1

Compound: O=C(O)CCC(=O)C(=O)O [2-OG, 2-oxoglutarate]
- Km (IDH1 S280F; read-out: KM IDH1 S280F; reduction of 2-OG to 2-HG; […] enzyme): 123 ± 4 µM
- Km (IDH1 wt; read-out: KM IDH1 wt; reduction of 2-OG to 2-HG; […] enzyme): 792 ± 103 µM

Compound: [Cl-].[Cl-].[Mg+2] [MgCl2]
- Km (IDH1 S280F; [3]): 24 ± 3 µM
- kcat IDH1 S280F (IDH1 S280F; [4]): 33 ± 1 s⁻¹
- Decrease of KM for IDH1 S280F compared to IDH1 wt (IDH1 S280F; reduction of 2-OG to 2-HG): 100 fold
- Km (IDH1 S280F; [5]): 15 ± 4 µM
- Km (IDH1 wt; [6]): 18 ± 2 µM
- kcat IDH1 wt (IDH1 wt; [4]): 37 ± 1 s⁻¹

Compound: C[C@H](Nc1ccc(C#N)n(C)c1=O)c1cc2cc(Cl)ccc2[nH]c1=O [FT-2102]
- 2-HG levels, control (empty vector) LN18 cells [1, 2]: 52804.5 and 64927 and 75933.5 and 34018.1

Compound: CC(Nc1nccc(N2C(=O)OCC2C(C)C)n1)c1ccc(CN2CCC(F)(F)CC2)cc1 (stereo not drawn) [IDH224]
- 2-HG levels, control (empty vector) LN18 cells [1]: 89318.1 and 81458.8 and 60558.2 and 69273.4

Compound: NC(=O)C1=CN([C@@H]2O[C@H](COP(=O)(O)OP(=O)(O)OC[C@H]3O[C@@H](n4cnc5c(N)ncnc54)[C@H](OP(=O)(O)O)[C@@H]3O)[C@@H](O)[C@H]2O)C=CC1 [NADPH]
- Km (IDH1 S280F; [5]): 3 ± 0.3 µM
- Km (IDH1 wt; reduction of 2-OG to 2-HG; […] enzyme; read-out: KM IDH1 wt): 7 ± 2 µM

Compound: NC(=O)c1ccc[n+]([C@@H]2O[C@H](COP(=O)([O-])OP(=O)(O)OC[C@H]3O[C@@H](n4cnc5c(N)ncnc54)[C@H](OP(=O)(O)O)[C@@H]3O)[C@@H](O)[C@H]2O)c1 [NADP+]
- Km (IDH1 S280F; [3]): 7.4 ± 0.7 µM
- kcat IDH1 S280F (IDH1 S280F; [4]): 31.3 ± 0.6 s⁻¹
- Km (IDH1 wt; [6]): 10.1 ± 0.7 µM
- kcat IDH1 wt (IDH1 wt; [4]): 43.2 ± 0.7 s⁻¹

Compound: COc1c(C)cc(NC(=O)c2nn(Cc3ccc(F)cc3)c3c2CN(C(=O)c2ccc[nH]2)C[C@]3(C)C(N)=O)cc1C [GSK864]
- 2-HG levels, control (empty vector) LN18 cells [1, 2]: 43585.6 and 50898.8 and 60357.4 and 48169.7

Compound: O=C(O)CC(C(=O)O)C(O)C(=O)O (racemic) [DL-Isocitrate, DL-isocitric acid trisodium salt]
- Km (IDH1 S280F; [3]): 12 ± 1 µM
- Km (IDH1 wt; [6]): 31 ± 3 µM

Compound: N#Cc1ccnc(N2C(=O)CC[C@H]2C(=O)N(c2cncc(F)c2)[C@H](C(=O)NC2CC(F)(F)C2)c2ccccc2Cl)c1 [ivosidenib]
- 2-HG levels, control (empty vector) LN18 cells ([1]; 5 µM inhibitor, 24 h, replicates, listed as AG120): 57883 and 75917.7 and 85802.8 and 47477.2
